Experimental data taken from patent publication EP4806894A1, “TNAP INHIBITORY COMPOUND AND USE THEREOF” (Rednvia Co., Ltd., priority 2023, dated 2025).

Key:
TNAP = molecular target: T1, TNAP (Homo sapiens, UniProt P05186); experiment: TNAP inhibitory activity, colorimetric assay (alkaline phosphatase assay kit ab83369, pNPP substrate); type: biochemical; settings: TNAP enzyme, 2 hours at room temperature, absorbance 405 nm
T1 sequence (P05186 18-502 limits assumed): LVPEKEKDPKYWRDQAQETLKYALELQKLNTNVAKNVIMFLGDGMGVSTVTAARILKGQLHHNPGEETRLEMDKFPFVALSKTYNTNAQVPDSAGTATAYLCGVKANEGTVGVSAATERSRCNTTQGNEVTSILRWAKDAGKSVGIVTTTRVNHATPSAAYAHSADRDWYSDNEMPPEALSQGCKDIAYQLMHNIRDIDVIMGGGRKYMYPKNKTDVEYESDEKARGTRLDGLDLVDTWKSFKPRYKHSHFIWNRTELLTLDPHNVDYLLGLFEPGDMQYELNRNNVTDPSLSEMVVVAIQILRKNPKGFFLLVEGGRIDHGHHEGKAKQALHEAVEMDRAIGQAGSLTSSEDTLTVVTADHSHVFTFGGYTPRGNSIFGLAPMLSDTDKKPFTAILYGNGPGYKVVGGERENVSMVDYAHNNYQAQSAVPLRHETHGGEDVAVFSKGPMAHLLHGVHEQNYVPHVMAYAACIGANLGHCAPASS
Description: The TNAP inhibitory activity of the compounds according to the present invention was analyzed by colorimetric assay.
The experiments were performed according to the protocol of the alkaline phosphatase assay kit ab83369.
TNAP enzyme at a concentration of 0.2 ng/µl was dispensed into a 96-well plate (Costar) (10 µl/well), to which the 10-fold diluted test substance was added (15 µl/well). The plate was incubated at room temperature, shielded from light, for 10 minutes to allow the enzyme and compound to act. After incubation, 125 µl of 1 mM substrate (pNPP) was added to each well of the plate, and the plate was incubated for 2 hours at room temperature in a darkened state to allow the enzyme, substrate, and test compound to act. Absorbance was measured at 405 nm using a microplate reader (Tecan spark), and IC50 was calculated using GraphPad Prism 9. The amount of p-nitrophenol produced was calculated through the absorbance, and the degree of TNAP activity inhibition was evaluated through the degree of inhibition of p-nitrophenol production, and the concentration of the compound that inhibited 50% was calculated as the IC50 value.

saos-2 cells = experiment: Anticalcification efficacy in saos-2 cells (osteogenic medium, Alizarin Red staining); type: cell-based; settings: test compound 1 µM, 7 days osteogenic medium, Alizarin Red absorbance 540 nm; for inhibition at 1 µM: Homo sapiens, 168 h, read-out: calcification inhibition
Description: To confirm the inhibitory effect of calcification in saos-2 cells in which calcification is induced by overexpression of TNAP, saos-2 cells were cultured in a culture medium in an incubator at 37°C, 95% humidity, and 5% CO2. RPMI-1640 (Corning) supplemented with 10% FBS (Gibco) and 1% Pen/Strep (Gibco) was used as the culture medium.
Saos-2 cells were seeded in a 48-well plate at the density of 1.5 x 10^4 cells/well and used in the experiment when they reached 80-90% confluence after stabilization for 2 days.
After saos-2 cells were cultured in a 48-well plate to 80-90% confluence, the culture medium was removed and replaced with an osteogenic medium (OM). DMEM (Gibco) containing 10% FBS, 1% Pen/Strep, 100 nM dexamethasone (Sigma), 10 mM β-glycerophosphate (Sigma), and 0.05 mM L-ascorbic acid (Sigma) was used as the OM. Osteogenic differentiation of saos-2 cells by OM was induced for 7 days, and OM was replaced every 2 to 3 days.
When inducing calcification through OM in saos-2 cells, the cells were treated with concentrations of […] of the TNAP inhibitor test compounds with the OM replacement cycle, except for the control group (OM).
After 7 days of OM induction, the medium was removed from each well and the plate was washed twice with PBS. Cells were fixed with 4% paraformaldehyde for 1 hour, then the fixative was removed and washed twice with deionized water (DW). ARS solution was added to the plate and shaken for 1 hour to stain the cells. When the cells were sufficiently stained red, the dye was removed, the cells were washed carefully with DW, dried, and then photographs were taken of the stained cells. The red-stained area represents calcification induced by OM, and the degree of calcification was determined based on the degree of redness. To quantify this, 10% cetylpyridinium chloride was dispensed into the wells and the dye was dissolved. The dye-dissolved solution was transferred to each well of a 96 well plate and absorbance was measured at 540 nm.
The degree of decrease in the measured absorbance by the test compounds based on the absorbance for OM was evaluated as the degree of inhibition of calcification.

Compound | IC50 (TNAP) | inhibition at 1 µM (saos-2 cells) | calcification inhibition (saos-2 cells)
COc1ccc(-c2ccc(F)nc2)cc1S(=O)(=O)Nc1cnc2c(c1)C(=O)NCC2 [Example 77, 5-(6-fluoropyridine-3-yl)-2-methoxy-N-(5-oxo-5,6,7,8-tetrahydro-1,6-naphthyridine-3-yl)benzenesulfonamide] | 100 to 1000 nM | ≥ 50% | 
COc1ccc(-c2c(C)noc2C)cc1S(=O)(=O)Nc1cnc2c(c1)C(=O)NCC2 [Example 84, 5-(3,5-dimethylisoxazole-4-yl)-2-methoxy-N-(5-oxo-5,6,7,8-tetrahydro-1,6-naphthyridine-3-yl)benzenesulfonamide] | 10 to 100 nM | ≥ 50% | 
O=C1NCCc2ncc(NS(=O)(=O)c3cccc4c3OCC4)cc21 [Example 19, N-(5-oxo-5,6,7,8-tetrahydro-1,6-naphthyridine-3-yl)-2,3-dihydrobenzofuran-7-sulfonamide] | ≥ 1000 nM | < 0% | 
CCCCn1cc(-c2ccc(OC)c(S(=O)(=O)Nc3cnc4c(c3)C(=O)NCC4)c2)cn1 [Example 123, 5-(1-butyl-1H-pyrazole-4-yl)-2-methoxy-N-(5-oxo-5,6,7,8-tetrahydro-1,6-naphthyridine-3-yl)benzenesulfonamide] | 10 to 100 nM | ≥ 50% | 
4'-(aminomethyl)-4-fluoro-N-(5-oxo-5,6,7,8-tetrahydro-1,6-naphthyridine-3-yl)-[1,1'-biphenyl]-2-sulfonamide hydrochloride [Example 39] | 10 to 100 nM |  | A (inhibition of 50% or more was expressed as "A")
COc1ccc(OC)c(S(=O)(=O)Nc2cnc3c(c2)CN(C(=O)OCCF)CC3)c1 [Example 103, 2-fluoroethyl-3-((5-methoxy-2-methoxyphenyl)sulfonamido)-7,8-dihydro-1,6-naphthyridine-6(5H)-carboxylate] | 10 to 100 nM | ≥ 50% | 
COc1ccc(Br)cc1S(=O)(=O)Nc1cnc2c(c1)C(=O)NC2 [Example 2, 5-bromo-2-methoxy-N-(5-oxo-6,7-dihydro-5H-pyrrolo[3,4-b]pyridine-3-yl)benzenesulfonamide] | 10 to 100 nM | ≥ 50% | 
COc1ccc(Br)cc1S(=O)(=O)Nc1cnc2c(c1)CN(C(=O)N1CCOCC1)CC2 [Example 110, 5-bromo-2-methoxy-N-(6-(morpholine-4-carbonyl)-5,6,7,8-tetrahydro-1,6-naphthyridine-3-yl)benzenesulfonamide] | 10 to 100 nM | ≥ 50% | 
COc1ccc(-c2ccncc2)cc1S(=O)(=O)Nc1cnc2c(c1)C(=O)NCC2 [Example 31, 2-methoxy-N-(5-oxo-5,6,7,8-tetrahydro-1,6-naphthyridine-3-yl)-5-(pyridine-4-yl)benzenesulfonamide] | 100 to 1000 nM | ≥ 50% | 
COc1ccc(C2=CCCCC2)cc1S(=O)(=O)Nc1cnc2c(c1)C(=O)NCC2 [Example 63, 4-methoxy-N-(5-oxo-5,6,7,8-tetrahydro-1,6-naphthyridine-3-yl)-2',3',4',5'-tetrahydro-[1,1'-biphenyl]-3-sulfonamide] | 100 to 1000 nM | < 0% | 
COc1ccc(Cl)cc1S(=O)(=O)Nc1cnc2c(c1)CN(C(=O)Nc1ccccc1)CC2 [Example 115, 3-((5-chloro-2-methoxyphenyl)sulfonamido)-N-phenyl-7,8-dihydro-1,6-naphthyridine-6(5H)-carboxamide] | 10 to 100 nM | ≥ 50% | 
COc1ccc(-c2ccc3c(c2)OCCO3)cc1S(=O)(=O)Nc1cnc2c(c1)C(=O)NCC2 [Example 29, 5-(2,3-dihydrobenzo[b][1,4]dioxine-6-yl)-2-methoxy-N-(5-oxo-5,6,7,8-tetrahydro-1,6-naphthyridine-3-yl)benzenesulfonamide] | 100 to 1000 nM | ≥ 50% | 
COc1ccc(Br)cc1S(=O)(=O)Nc1cnc2c(c1)CN(C(C)C)CC2 [Example 113, 5-bromo-N-(6-isopropyl-5,6,7,8-tetrahydro-1,6-naphthyridine-3-yl)-2-methoxybenzenesulfonamide] | 100 to 1000 nM | < 0% | 
COc1ccc(-c2cnn(C(C)(C)C(N)=O)c2)cc1S(=O)(=O)Nc1cnc2c(c1)C(=O)NCC2 [Example 58, 2-(4-(4-methoxy-3-(N-(5-oxo-5,6,7,8-tetrahydro-1,6-naphthyridine-3-yl)sulfamoyl)phenyl)-1H-pyrazole-1-yl)-2-methylpropanamide] | ≥ 1000 nM | 0 to 50% | 
CCn1cc(-c2ccc(OC)c(S(=O)(=O)Nc3cnc4c(c3)C(=O)NCC4)c2)c(C(F)(F)F)n1 [Example 82, 5-(1-ethyl-3-(trifluoromethyl)-1H-pyrazole-4-yl)-2-methoxy-N-(5-oxo-5,6,7,8-tetrahydro-1,6-naphthyridine-3-yl)benzenesulfonamide] | ≤ 10 nM | ≥ 50% | 
COc1ccc(-c2ccc(C3(C(=O)O)CC3)cc2)cc1S(=O)(=O)Nc1cnc2c(c1)C(=O)NCC2 [Example 32, 1-(4'-methoxy-3'-(N-(5-oxo-5,6,7,8-tetrahydro-1,6-naphthyridine-3-yl)sulfamoyl)-[1,1'-biphenyl]-4-yl)cyclopropane-1-carboxylic acid] | 10 to 100 nM | ≥ 50% | 
COc1ccc(-c2cnn(C3CCN(C)CC3)c2)cc1S(=O)(=O)Nc1cnc2c(c1)C(=O)NCC2 [Example 65, 2-methoxy-5-(1-(1-methylpiperidine-4-yl)-1H-pyrazole-4-yl)-N-(5-oxo-5,6,7,8-tetrahydro-1,6-naphthyridine-3-yl)benzenesulfonamide] | ≥ 1000 nM | < 0% | 
NCc1ccc(-c2cc3c(c(S(=O)(=O)Nc4cnc5c(c4)C(=O)NCC5)c2)OCC3)cc1 [Example 41, 5-(4-(aminomethyl)phenyl)-N-(5-oxo-5,6,7,8-tetrahydro-1,6-naphthyridine-3-yl)-2,3-dihydrobenzofuran-7-sulfonamide] | ≥ 1000 nM | < 0% | 
2-methoxy-N-(5-oxo-5,6,7,8-tetrahydro-1,6-naphthyridine-3-yl)benzenesulfonamide [Example 26] | 10 to 100 nM |  | A (inhibition of 50% or more was expressed as "A")
COc1ccc(-c2cnn(C(C)c3nc(-c4ccc(F)cc4)no3)c2)cc1S(=O)(=O)Nc1cnc2c(c1)C(=O)NCC2 (centres unmarked) [Example 71, 5-(1-(1-(3-(4-fluorophenyl)-1,2,4-oxadiazole-5-yl)ethyl)-1H-pyrazole-4-yl)-2-methoxy-N-(5-oxo-5,6,7,8-tetrahydro-1,6-naphthyridine-3-yl)benzenesulfonamide] | ≥ 1000 nM | < 0% | 
O=C1NCCc2ncc(NS(=O)(=O)c3cc(Br)cc4c3OCC4)cc21 [Example 10, 5-bromo-N-(5-oxo-5,6,7,8-tetrahydro-1,6-naphthyridine-3-yl)-2,3-dihydrobenzofuran-7-sulfonamide] | 100 to 1000 nM | ≥ 50% | 
COc1ccc(-c2cnn(C(C)(C)C)c2)cc1S(=O)(=O)Nc1cnc2c(c1)C(=O)NCC2 [Example 122, 5-(1-(tert-butyl)-1H-pyrazole-4-yl)-2-methoxy-N-(5-oxo-5,6,7,8-tetrahydro-1,6-naphthyridine-3-yl)benzenesulfonamide] | 10 to 100 nM | < 0% | 
